{
  "source": "patent US11596648B2",
  "about": "“Emollient topical disinfectants” (priority 2016, dated 2023)",
  "key": {"[1]": {"details": "cited from earlier work"}, "[2]": {"details": "cited from earlier work", "remark": "listed apart in the source"}, "[3]": {"details": "rats, 1 hour; cited from earlier work"}, "[4]": {"test": "Iodine vapor detection with iodine sensitive paper disc in vial lid (Example 4)", "details": "acetate buffer; cyclodextrin 50 mM", "method": "Solutions of these cyclodextrins were prepared in acetate buffer or propylene glycol, both containing molecular iodine as follows. Cyclodextrins were weighed and added to vials. Saturated solutions of molecular iodine (Alfa Aesar 14248 Lot 104Z003) were then prepared in either: (a) […] acetate buffer (pH 4.5); or (b) propylene glycol.\nAliquots of each solution of the different cyclodextrins were added to vials to a final cyclodextrin concentration of 50 mM. […] The screw-top lid of each vial was fitted with an iodine sensitive paper disc (Fluka #37215, Lot SZBF1310V) that fit tightly in the lid so the paper was exposed to the atmosphere in the vial which would allow the paper to react with molecular iodine that was in the vapor phase.\nAt time points of: one (1) hour; six (6) hours; and twenty-four (24) hours, the color of the indicator paper on the inside of the screw-top lids were examined and photographed."}, "[5]": {"test": "Viscosity with Brookfield DV2T viscometer (Example 7)", "format": "physicochemical", "details": "for viscosity: extrapolated to zero shear", "method": "Viscosity was measured using a Brookfield DV2T viscometer which allowed for the precise control of the temperature at which the viscosity was measured. The Brookfield DV2T was programmed to measured viscosity at different shear rates by systematically ramping the spindle (CP-40 or CP-52) speed up and then down as shown in FIG. 4A for propylene glycol at 25° C.\nThe viscosity values were fitted to a curve and extrapolated to the zero shear value to arrive at a final estimate for viscosity.\nOne series of samples was prepared without molecular iodine and a second series was prepared that contained 800 ppm molecular iodine. The viscosity of these samples was measured as described above using an up-down rate ramp program. The results were fitted to an Ostwald model, i.e. stress versus shear rate curve fit, and the consistency constant was reported as the viscosity."}, "[6]": {"test": "Potassium iodide starch paper coloration versus time, vapor pressure of molecular iodine (Example 5)", "details": "cyclodextrin 50 mM; for reduction in vapor pressure of molecular iodine in the acetate buffer (ranking): 0.1M acetate buffer pH 4.5; for ability to reduce the vapor pressure of molecular iodine in an aqueous environment (conclusion): acetate buffer", "excerpt": "Alpha cyclodextrin (cat. number C4642, Sigma Life Sciences, Lot 2X SLBK4630V, CAS 10016-20-3), beta cyclodextrin (cat. number C4767, Sigma Life Sciences, Lot MKBV2085V, CAS 7585-39-9), gamma cyclodextrin (cat. number C4892, Sigma Life Sciences, Lot SLBL4156V, CAS 17465-86-0), methyl beta cyclodextri, (cat. number C4555, Sigma Life Sciences, Lot WXBC0745V, CAS 128446-36-6) and 2-hydroxypropyl-beta-cyclodextrin (cat. number H107, Sigma Life Sciences, Lot WXBC0083V, CAS 128446-35-5) were weighed into vials.\nAliquots of saturated molecular iodine in either propylene glycol or 0.1M acetate buffer (pH 4.5) were added to the vials to yield a final cyclodextrin concentration of 50 mM. The samples were lightly vortexed to dissolve the cyclodextrins. Control vials were prepared consisting of saturated iodine in either propylene glycol or 0.1M acetate buffer pH 4.5.\nAnalytical potassium iodide starch paper (Fluka #37215, Lot SZBF1310V) was cut into circle and placed inside the screw-top lid of the vials in a manner that held the paper in place once the lid was screwed onto the vial.\nProvided in FIGS. 2A-2L are pictures of the starch paper taken at different time points to document the color of the starch paper versus time of exposure to the atmosphere inside of the vial. The operating assumption was that the color of the starch paper would be proportional to the time of exposure to the concentration of molecular iodine in the atmosphere inside of the vial.\nThe concentration of molecular iodine in the atmosphere inside of the vial is proportional to the vapor pressure of dissolved molecular iodine in the liquid phase."}},
  "note": "Where two headings read alike, the source gives them in different places.",
  "data": [
    {"compound": "II", "note": "[Molecular iodine, molecular iodine]", "values": [
      {"measurement": "maximum iodine that can build up in a closed container", "setting": "[1]; 25° C., standard atmospheric pressure", "result": "≤ 394", "unit": "ppm"},
      {"measurement": "vapor pressure", "setting": "[1]; 25° C.", "result": 0.3, "unit": "mm"},
      {"measurement": "vapor pressure", "setting": "[1]; 38.7° C.", "result": 1, "unit": "mm"},
      {"measurement": "permissible exposure limit", "setting": "[2]; NIOSH, OSHA", "result": 0.1, "unit": "ppm"},
      {"measurement": "concentration with severe eye irritation", "setting": "[2]; after 2 minutes", "result": 1.63, "unit": "ppm"},
      {"measurement": "concentration at which humans can work undisturbed", "setting": "[2]; iodine vapor, inhalation", "result": 0.1, "unit": "ppm"},
      {"measurement": "concentration at which humans work with difficulty", "setting": "[2]; iodine vapor, inhalation", "result": "0.15-0.2 ppm"},
      {"measurement": "concentration that humans cannot tolerate", "setting": "[2]; iodine vapor, inhalation", "result": "≥ 0.3", "unit": "ppm"},
      {"measurement": "level at which odor is detected", "setting": "[2]; iodine vapor", "result": "about 0.9 ppm"},
      {"measurement": "lowest lethal atmospheric concentration", "setting": "[3]", "result": 80, "unit": "ppm"}
    ]},
    {"compound": "OC[C@H]1O[C@@H]2O[C@H]3[C@H](O)[C@@H](O)[C@@H](O[C@H]4[C@H](O)[C@@H](O)[C@@H](O[C@H]5[C@H](O)[C@@H](O)[C@@H](O[C@H]6[C@H](O)[C@@H](O)[C@@H](O[C@H]7[C@H](O)[C@@H](O)[C@@H](O[C@H]8[C@H](O)[C@@H](O)[C@@H](O[C@H]9[C@H](O)[C@@H](O)[C@@H](O[C@H]1[C@H](O)[C@H]2O)O[C@@H]9CO)O[C@@H]8CO)O[C@@H]7CO)O[C@@H]6CO)O[C@@H]5CO)O[C@@H]4CO)O[C@@H]3CO", "note": "[gamma cyclodextrin, γ-cyclodextrin]", "values": [
      {"measurement": "color of iodine indicator paper / iodine vapor at 6 hours", "setting": "[4]", "result": "clearly detected"},
      {"measurement": "color of iodine indicator paper / iodine vapor at 24 hours", "setting": "[4]", "result": "deeply stained"}
    ]},
    {"compound": "CC(O)CO", "note": "(stereo not drawn) [propylene glycol]", "values": [
      {"measurement": "viscosity", "setting": "[5]; 25° C.", "result": 59, "unit": "cP"},
      {"measurement": "viscosity", "setting": "[5]; 33° C.", "result": 95, "unit": "cP"},
      {"measurement": "flow behaviour", "setting": "[5]; viscosity versus shear", "result": "behaves like a Newtonian fluid"}
    ]},
    {"compound": "OC[C@H]1O[C@@H]2O[C@H]3[C@H](O)[C@@H](O)[C@@H](O[C@H]4[C@H](O)[C@@H](O)[C@@H](O[C@H]5[C@H](O)[C@@H](O)[C@@H](O[C@H]6[C@H](O)[C@@H](O)[C@@H](O[C@H]7[C@H](O)[C@@H](O)[C@@H](O[C@H]8[C@H](O)[C@@H](O)[C@@H](O[C@H]1[C@H](O)[C@H]2O)O[C@@H]8CO)O[C@@H]7CO)O[C@@H]6CO)O[C@@H]5CO)O[C@@H]4CO)O[C@@H]3CO", "note": "[β-cyclodextrin]", "values": [
      {"measurement": "color of iodine indicator paper / iodine vapor at 6 hours", "setting": "[4]", "result": "clearly detected"},
      {"measurement": "color of iodine indicator paper / iodine vapor at 24 hours", "setting": "[4]", "result": "deeply stained"}
    ]},
    {"compound": "hydroxypropyl-β-cyclodextrin [hyroxypropyl-β-cyclodextrin]", "values": [
      {"measurement": "color of iodine indicator paper / iodine vapor at 24 hours", "setting": "[4]", "result": "clearly detected"},
      {"measurement": "effect on vapor pressure of molecular iodine in an aqueous environment", "setting": "[4]", "result": "reduces the vapor pressure of molecular iodine"},
      {"measurement": "reduction in vapor pressure of molecular iodine in the acetate buffer (ranking)", "setting": "[6]", "result": "greatest reduction in vapor pressure"},
      {"measurement": "ability to reduce the vapor pressure of molecular iodine in an aqueous environment (conclusion)", "setting": "[6]", "result": "most effective"}
    ]},
    {"compound": "methyl-β-cyclodextrin", "values": [
      {"measurement": "effect on vapor pressure of molecular iodine in an aqueous environment", "setting": "[4]", "result": "reduces the vapor pressure of molecular iodine"},
      {"measurement": "reduction in vapor pressure of molecular iodine in the acetate buffer (ranking)", "setting": "[6]", "result": "greatest reduction in vapor pressure"},
      {"measurement": "ability to reduce the vapor pressure of molecular iodine in an aqueous environment (conclusion)", "setting": "[6]", "result": "most effective"}
    ]}
  ]
}
